Tests used:
Mouse = assay: Test for acute toxicity, mouse; settings: for Animals which died: 10 animals
Description: The acute toxicity was determined after oral administration of substance B to male and female mice, rats and dogs. The substance was administered to mice and rats in the form of a suspension in tylose and to dogs in the form of a solution in water.

[1] = test system: Pseudomonas aeruginosa Hbg.; assay: Bacteriostasis, agar diffusion test; format: cell-based; settings: 16,000 μg/ml
Description: (§1) Substance B was tested with regard to its bacteria- and fungi-inhibiting effect by the serial dilution test and agar diffusion test.

[2] = test system: Staphylococcus aureus SG 511; assay: Bacteriostasis, agar diffusion test; format: cell-based; settings: 16,000 μg/ml
Description: as §1

[3] = test system: Serratia marcescens ATCC 13880; assay: Bacteriostasis, agar diffusion test; format: cell-based; settings: 16,000 μg/ml
Description: as §1

[4] = test system: Escherichia coli ATCC 9637; assay: Bacteriostasis, agar diffusion test; format: cell-based; settings: 16,000 μg/ml
Description: as §1

Streptococcus Aronson = assay: Bacteriostasis, agar diffusion test; format: cell-based; settings: 16,000 μg/ml
Description: as §1

Sc. pyogenes ATCC 8688 = assay: Bacteriostasis, agar diffusion test; format: cell-based; settings: 16,000 μg/ml
Description: as §1

mice [5] = assay: Effect on motility of mice (sedative and stimulating effect); format: in vivo, Chbb:NMRI-mice; settings: 200 mg/kg p.o.; for % motility: vs control
Description: Eight female Chbb:NMRI-mice (SPF) having a body weight from 20 to 26 g were tested in light beam cages after oral administration of the test compound in a suspension of 1% tylose. 30, 90 and 150 minutes after administration of the test compound, their motility was measured for 5 minutes each; a control group received only the solvent (tylose:carboxymethyl cellulose). The change in motility, given in percent with regard to that of the control group, was determined.

rats [6] = assay: Effect on choleresis in rats; format: in vivo, Chbb:THOM-rats
Description: A cannula was tied to the ductus choledochus of anesthetized, fasted male Chbb:THOM-rats (SPF) having a body weight of 180-220 gm, and the rate of flow of bile liquid was registered via a drop counter. 100 or 200 mg/kg of substance B in aqua dist. solution were administered intraduodenally to each of 10 animals. A control group received only the solvent. The number of the drops received within 1 hour before the treatment was compared with the number of the drops received within 1-5 hours after treatment.
In Table 10 the average number of drops 1-5 hours after treatment is shown in percent, compared with the values before treatment.

Salmonella typhimurium = assay: Prior serial dilution test for inhibition of microorganism growth (AMES-system); format: cell-based; settings: highest dosage used
Description: Compound B was tested at concentrations of 0.25, 2.5, 5 and 10 mg/plate.

mice [7] = assay: Ability of mice to hold themselves in rotating cylinders (muscle relaxing and/or ataxic effect); format: in vivo, Chbb:NMRI-mice; settings: 400 mg/kg p.o.; for Animals which fell out: N = 10
Description: In analogy to the method described by Young and Lewis [Science 105, 368 (1947)], 10 female Chbb:NMRI-mice (SPF) having a body weight of 20-26 gm were tested to determine whether they were able to hold themselves in rotating cylinders after oral administration of 400 mg/kg of substance in aqua dist. The measurements were carried out 30-60, 90-120, 210-240 and 270-300 minutes after administration.

rats [8] = assay: Ulcerogenic effect in rats; format: in vivo, Chbb:THOM-rats; settings: 200 mg/kg p.o.
Description: 200 mg/kg of substance B in 1% tylose suspension were administered perorally to 10 male and female (1:1) Chbb:THOM-rats (SPF) having an approximate body weight of 200 gm. A control group received only the suspension agent. After 4 hours all animals were killed, the stomach was dissected and inspected with regard to lesions of the mucosa.

taste testers = assay: Determination of the taste quality; format: in vivo
Description: The tests were performed in analogy to the method of DuBois, G. A. Crosby, R. A. Stephanson and R. E. Wingard Jr., J. Agric. […] The test compounds were used as aqueous solutions at a concentration which corresponds to an about 5% saccharose solution. As comparison compound saccharose was used. The tests were carried out under identical conditions. Only the characterization of the taste was evaluated, because the intensity was already determined in the preceding experiments. The following criteria were determined by each tester: Percentage sweet to percentage bitter to percentage another taste quality. Furthermore, the presence or absence of an after taste of the individual test compounds was determined. Each substance was tested twice with regard to five different determinations.

beagles = assay: Test for subacute toxicity in the dog; settings: in vivo
Description: The test was carried out in each 3 male and 3 female beagles. Over a period of 5 weeks 750 mg/kg of substance B were administered orally.
After the test period of 5 weeks the animals were killed and the same organs as above were taken for histological examination.

O=C1NS(=O)(=O)c2cccc(O)c21.[Na]
Animals which died (Mouse; 10 g/kg oral, 1 day): 0
Animals which died (Mouse; 10 g/kg oral, 7 days): 0
Animals which died (Mouse; 10 g/kg oral, 14 days): 0
deaths (in words) (Mouse; 10 g/kg oral, during the observation time): no animals died
behavior (Mouse; mouse, in vivo, po): completely normal behavior
toxic symptoms (Mouse; mouse, in vivo, po): no toxic symptoms could be observed
inhibiting effect [1]: did not show any inhibiting effect
inhibiting effect [2]: did not show any inhibiting effect
inhibiting effect [3]: did not show any inhibiting effect
inhibiting effect [4]: did not show any inhibiting effect
inhibiting effect (Streptococcus Aronson): did not show any inhibiting effect
inhibiting effect (Sc. pyogenes ATCC 8688): did not show any inhibiting effect
effect on motility of mice (in words) (mice [5]): did not affect the motility of mice
Motility of mice (mice [5]; 30-35 min): 92 ± 21 contacts/animal
% motility (mice [5]; 30-35 min): 102%
Motility of mice (mice [5]; 90-95 min): 84 ± 28 contacts/animal
% motility (mice [5]; 90-95 min): 101%
Motility of mice (mice [5]; 150-155 min): 49 ± 17 contacts/animal
% motility (mice [5]; 150-155 min): 72%
Choleresis in %, compared with the values before treatment (rats [6]; 100 mg/kg i.d., 1 hour): 97%
Choleresis, average number of drops (rats [6]; 100 mg/kg i.d., 1 hour): 53.3 drops/ hr
Choleresis in %, compared with the values before treatment (rats [6]; 100 mg/kg i.d., 2 hours): 94%
Choleresis, average number of drops (rats [6]; 100 mg/kg i.d., 2 hours): 51.7 drops/ hr
Choleresis in %, compared with the values before treatment (rats [6]; 100 mg/kg i.d., 3 hours): 92%
Choleresis, average number of drops (rats [6]; 100 mg/kg i.d., 3 hours): 50.7 drops/ hr
Choleresis in %, compared with the values before treatment (rats [6]; 100 mg/kg i.d., 4 hours): 91%
Choleresis, average number of drops (rats [6]; 100 mg/kg i.d., 4 hours): 49.9 drops/ hr
Choleresis in %, compared with the values before treatment (rats [6]; 100 mg/kg i.d., 5 hours): 90%
Choleresis, average number of drops (rats [6]; 100 mg/kg i.d., 5 hours): 49.5 drops/ hr
Choleresis in %, compared with the values before treatment (rats [6]; 200 mg/kg i.d., 1 hour): 94%
Choleresis, average number of drops (rats [6]; 200 mg/kg i.d., 1 hour): 44.1 drops/ hr
Choleresis in %, compared with the values before treatment (rats [6]; 200 mg/kg i.d., 2 hours): 92%
Choleresis, average number of drops (rats [6]; 200 mg/kg i.d., 2 hours): 43.1 drops/ hr
Choleresis in %, compared with the values before treatment (rats [6]; 200 mg/kg i.d., 3 hours): 92%
Choleresis, average number of drops (rats [6]; 200 mg/kg i.d., 3 hours): 43.1 drops/ hr
Choleresis in %, compared with the values before treatment (rats [6]; 200 mg/kg i.d., 4 hours): 92%
Choleresis, average number of drops (rats [6]; 200 mg/kg i.d., 4 hours): 43.5 drops/ hr
Choleresis in %, compared with the values before treatment (rats [6]; 200 mg/kg i.d., 5 hours): 94%
Choleresis, average number of drops (rats [6]; 200 mg/kg i.d., 5 hours): 44.4 drops/ hr
effect on choleresis (in words) (rats [6]; 100 and 200 mg/kg i.d.): does not show any intraduodenal effects on choleresis in rats
inhibition of the microorganism growth (Salmonella typhimurium): did not show an inhibition of the microorganism growth
effect on holding ability of mice (in words) (mice [7]): does not affect the holding ability of mice
muscle relaxing or coordination inhibiting effect (in words) (mice [7]): no muscle relaxing or coordination inhibiting effect
Animals which fell out (mice [7]; 30-60 min): 2
Animals which fell out (mice [7]; 90-120 min): 2
Animals which fell out (mice [7]; 210-240 min): 1
Animals which fell out (mice [7]; 270-300 min): 0
ulcerogenic effect (in words) (rats [8]): does not show any ulcerogenic effect in rats
Animals having stomach lesions (rats [8]; 4 hours, N = 10): 0
purity of the taste (taste testers): 94-96%
After taste (taste testers; 1:10000, 10 determinations): 5
Percentage bitter (taste testers; 1:10000, 10 determinations): 2%
Percentage other taste (taste testers; 1:10000, 10 determinations): 2%
Percentage sweet (taste testers; 1:10000, 10 determinations): 96%
behavior (beagles): did not show any abnormal behavior
histological examination of organs (beagles): No changes could be observed
spontaneous deaths (beagles): Spontaneous deaths could not be observed

Source: US4404230A, “4-Hydroxy-1,2-Benzisothiazol-3(2H)-one-1,1-dioxides and salts thereof” (priority 1980, dated 1983)
